pEC50: −log10 of the molar value.
Key:
[1] = biological target: T1, FXR (Homo sapiens, UniProt Q96RI1); experiment: FXR Transactivation Assay (GAL4 luciferase reporter, pBIND-FXR in HEK293T); type: cell-based; settings: HEK293T cells
T1 construct: expressed in transfected cells; host or cells: HEK293T
T1 sequence (Q96RI1 1-486): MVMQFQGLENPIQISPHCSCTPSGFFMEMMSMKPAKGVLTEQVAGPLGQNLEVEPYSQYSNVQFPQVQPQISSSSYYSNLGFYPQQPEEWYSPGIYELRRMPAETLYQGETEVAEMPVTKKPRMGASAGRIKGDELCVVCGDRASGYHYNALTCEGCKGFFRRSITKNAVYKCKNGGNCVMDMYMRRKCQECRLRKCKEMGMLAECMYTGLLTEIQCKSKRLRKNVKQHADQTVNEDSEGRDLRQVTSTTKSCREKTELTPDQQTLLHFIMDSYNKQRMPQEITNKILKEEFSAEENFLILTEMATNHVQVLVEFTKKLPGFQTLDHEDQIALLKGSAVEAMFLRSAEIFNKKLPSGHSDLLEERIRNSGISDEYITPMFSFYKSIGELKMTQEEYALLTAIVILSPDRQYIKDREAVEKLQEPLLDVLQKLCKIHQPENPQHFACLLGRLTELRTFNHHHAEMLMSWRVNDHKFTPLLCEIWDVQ
Method: FXR Transactivation Assay
pGL4.35 [luc2P/9XGAL4 UAS/Hygro]
Steady-Glo™ Luciferase Assay System
GW4064 as a positive control
(§1) • 1. Hek293T cells were plated at 1.1*10^6/ml into a 100 mm dish. • 2. […] Cells were incubated at 37° C. under 5% CO2 atmosphere. • 3. All of compounds were 3-fold serial diluted from 10 mM stock for 10 doses in DMSO. • 4. Transfer compound dilutions into 384 well assay plates using liquid workstation. • 5. Seed 25 ul HEK293T cells into 384 well assay plate (prepared step 4) at 0.6*10^5/ml. Cells were incubated at 37° C. under 5% CO2 atmosphere overnight. • 6. Add 25 ul steady-Glo™ Luciferase Assay Reagent into each well of 384-well assay plate. • 7. […] Calculate EC50 by fitting % Activity values and log of compound concentrations to nonlinear regression (dose response−variable slope) with Graphpad 5.0. FXR Coactivator Assay Reagents: LanthaScreen™ TR-FRET Farnesoid X Receptor Coactivator Assay GW4064 as a positive control Process: • 1. All of compounds were 3-fold serial diluted from 10 mM stock for 10 doses in DMSO. • 2. Dilute each 100× agonist serial dilution to 2× using Complete Coregulator buffer G. • 3. Transfer 10 μl of each of the 2× agonist serial dilutions to 384 well assay plates. • 4. Add 5 μl of 4×FXR-LBD to 384 well assay plates. • 5. […] Incubate at room temperature protected from light. • 7. […] Calculate EC50 by fitting % Activity values and log of compound concentrations to nonlinear regression (dose response−variable slope) with Graphpad 5.0.

[2] = biological target: T2, FXR-LBD (Homo sapiens, UniProt Q96RI1); experiment: FXR Coactivator Assay (LanthaScreen TR-FRET); type: biochemical
T2 construct: Add 5 μl of 4×FXR-LBD to 384 well assay plates; purchased
T2 sequence (Q96RI1 262-486 limits assumed): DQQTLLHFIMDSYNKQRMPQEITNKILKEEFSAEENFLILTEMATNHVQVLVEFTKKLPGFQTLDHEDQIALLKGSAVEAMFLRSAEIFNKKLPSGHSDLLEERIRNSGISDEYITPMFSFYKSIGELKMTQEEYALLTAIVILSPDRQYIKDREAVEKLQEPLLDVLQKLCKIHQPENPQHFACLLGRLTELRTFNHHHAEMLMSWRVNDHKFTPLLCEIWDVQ
Method: as §1

Compound	pEC50 [1]	pEC50 [2]
2-(4-[[3-(2,6-Dichlorophenyl)-5-(propan-2-yl)-1,2-oxazol-4-yl]methyl]piperazin-1-yl)-1-benzofuran-5-carboxylic acid [Compound X-01]	5.30 to 6.40	–
COc1cc(C(=O)O)cc2sc(N3CCN(Cc4c(-c5c(Cl)cccc5Cl)noc4C(C)C)C(C(C)C)C3)nc12 (racemic) [II-29]	5.30 to 6.40	–
COc1cc(C(=O)O)cc2sc(N3CCN(Cc4c(-c5c(Cl)cccc5Cl)noc4C(C)C)C4CCCCC43)nc12 (racemic) [II-39]	6.40 to 7.00	–
COc1cc(C(=O)O)cc2sc(N3CCN(Cc4c(C(C)C)cnn4-c4c(Cl)cccc4Cl)CC3)nc12 [II-03, 2-(4-[[1-(2,6-Dichlorophenyl)-4-(propan-2-yl)-1H-pyrazol-5-yl]methyl]piperazin-1-yl)-4-methoxy-1,3-benzothiazole-6-carboxylic acid]	6.40 to 7.00	7.00 to 8.00
COc1cc(C(=O)O)cc2sc(N3CCN(Cc4c(-c5c(Cl)cccc5Cl)noc4C(C)C)CC3CO)nc12 (stereo not shown) [II-07, 2-(4-[[3-(2,6-Dichlorophenyl)-5-(propan-2-yl)-1,2-oxazol-4-yl]methyl]-2-(hydroxymethyl)piperazin-1-yl)-4-methoxy-1,3-benzothiazole-6-carboxylic acid]	5.30 to 6.40	–
COc1cc(C(=O)O)cc2sc(N3CCN(Cc4c(-c5c(Cl)cccc5Cl)noc4C4CC4)CC3C)nc12 (stereo not shown) [II-11]	6.40 to 7.00	7.00 to 8.00
COc1cc(C(=O)O)cc2sc(N3CCN(Cc4c(-c5c(Cl)cccc5Cl)noc4C4CC4)CC3C)nc12 (stereo not shown) [II-13]	7.00 to 8.00	7.00 to 8.00
COc1cc(C(=O)O)cc2sc(N3CCN(Cc4c(C(C)C)cnn4-c4c(Cl)cccc4Cl)CC3C)nc12 (stereo not shown) [II-14]	5.30 to 6.40	–
COc1cc(C(=O)O)cc2sc(N3CCN(Cc4c(C(C)C)cnn4-c4c(Cl)cccc4Cl)CC3C)nc12 (stereo not shown) [II-15]	7.00 to 8.00	–
COc1cc(C(=O)O)cc2sc(N3CCN(Cc4c(-c5c(Cl)cccc5Cl)noc4C(C)C)CC3(C)C)nc12 [II-16]	6.40 to 7.00	7.00 to 8.00
COc1cc(C(=O)O)cc2sc(N3CCN(Cc4c(-c5c(Cl)cccc5Cl)noc4C(C)C)CC34CC4)nc12 [II-17]	5.30 to 6.40	–
CCC1CN(Cc2c(-c3c(Cl)cccc3Cl)noc2C(C)C)CCN1c1nc2c(OC)cc(C(=O)O)cc2s1 (stereo not shown) [II-18]	7.00 to 8.00	7.00 to 8.00
CCC1CN(c2nc3c(OC)cc(C(=O)O)cc3s2)CCN1Cc1c(-c2c(Cl)cccc2Cl)noc1C(C)C (stereo not shown) [II-20]	6.40 to 7.00	7.00 to 8.00
CCC1CN(c2nc3c(OC)cc(C(=O)O)cc3s2)CCN1Cc1c(-c2c(Cl)cccc2Cl)noc1C1CC1 (stereo not shown) [II-21]	6.40 to 7.00	–
COc1cc(C(=O)O)cc2sc(N3CCN(Cc4c(-c5c(Cl)cccc5Cl)noc4C(C)C)C(C)(C)C3)nc12 [II-22, 2-(4-[[3-(2,6-Dichlorophenyl)-5-(propan-2-yl)-1,2-oxazol-4-yl]methyl]-3,3-dimethylpiperazin-1-yl)-4-methoxy-1,3-benzothiazole-6-carboxylic acid]	6.40 to 7.00	7.00 to 8.00
COc1cc(C(=O)O)cc2sc(N3CCN(Cc4c(-c5c(Cl)cccc5Cl)noc4C4CC4)C(C)(C)C3)nc12 [II-23]	5.30 to 6.40	–
COc1cc(C(=O)O)cc2sc(N3CCN(Cc4c(-c5c(Cl)cccc5Cl)noc4C(C)C)C(C)C3)nc12 (stereo not shown) [II-24]	7.00 to 8.00	7.00 to 8.00

Compound	pEC50 [1]	pEC50 [2]
COc1cc(C(=O)O)cc2sc(N3CCN(Cc4c(-c5c(Cl)cccc5Cl)noc4C4CC4)C(C)C3)nc12 (stereo not shown) [II-25]	6.40 to 7.00	–
COc1cc(C(=O)O)cc2sc(N3CCN(Cc4c(-c5c(Cl)cccc5Cl)noc4C(C)C)C4(CC4)C3)nc12 [II-30]	6.40 to 7.00	7.00 to 8.00
COc1cc(C(=O)O)cc2sc(N3C4CCC3CN(Cc3c(-c5c(Cl)cccc5Cl)noc3C3CC3)C4)nc12 [II-36]	7.00 to 8.00	–
COc1cc(C(=O)O)cc2sc(N3CCC(Cc4c(C(C)C)cnn4-c4c(Cl)cccc4Cl)CC3)nc12 [II-44]	5.30 to 6.40	–
COc1cc(C(=O)O)cc2sc(N3CCC(Cc4c(-c5c(Cl)cccc5Cl)noc4C(C)C)C[C@H]3C)nc12 (stereo partly drawn) [II-45, 2-((2R)-4-((3-(2,6-Dichlorophenyl)-5-isopropylisoxazol-4-yl)methyl)-2-methylpiperidin-1-yl)-4-methoxybenzo[d]thiazole-6-carboxylic acid]	7.00 to 8.00	–
COc1cc(C(=O)O)cc2sc(N3CC=C(Cc4c(-c5c(Cl)cccc5Cl)noc4C4CC4)C[C@H]3C)nc12 [II-46, 2-[(2R)-4-[[5-Cyclopropyl-3-(2,6-dichlorophenyl)-1,2-oxazol-4-yl]methyl]-2-methyl-1,2,3,6-tetrahydropyridin-1-yl]-4-methoxy-1,3-benzothiazole-6-carboxylic acid]	–	7.00 to 8.00
COc1cc(C(=O)O)cc2sc(C3CCN(Cc4c(-c5c(Cl)cccc5Cl)noc4C(C)C)CC3)nc12 [II-47, 2-(1-((3-(2,6-Dichlorophenyl)-5-isopropylisoxazol-4-yl)methyl)piperidin-4-yl)-4-methoxybenzo[d]thiazole-6-carboxylic acid]	–	6.40 to 7.00
COc1cc(C(=O)O)cc2sc(N3CCC(Cc4c(-c5c(Cl)cncc5Cl)noc4C4CC4)CC3)nc12 [II-49]	5.30 to 6.40	–
COc1cc(C(=O)O)cc2sc(N3CCC(Cc4c(-c5ccccc5OC(F)(F)F)noc4C4CC4)CC3)nc12 [II-50]	7.00 to 8.00	–
CC(C)c1onc(-c2c(Cl)cccc2Cl)c1CC1CCN(c2nc3ccc(C(=O)O)cc3s2)CC1 [III-08]	5.30 to 6.40	–
Cc1cc(C(=O)O)cc2sc(N3CCC(Cc4c(C(C)C)cnn4-c4c(Cl)cccc4Cl)CC3)nc12 [IV-10]	6.40 to 7.00	–
COc1cc(C#N)cc2sc(N3CCN(Cc4c(-c5c(Cl)cccc5Cl)noc4C(C)C)CC3)nc12 [IX-01, 2-(4-((3-(2,6-Dichlorophenyl)-5-isopropylisoxazol-4-yl)methyl)piperazin-1-yl)-4-methoxybenzo[d]thiazole-6-carbonitrile]	5.30 to 6.40	–
COc1cc(-c2nnn[nH]2)cc2sc(N3CCN(Cc4c(-c5c(Cl)cccc5Cl)noc4C(C)C)CC3)nc12 [IX-02, 3-(2,6-Dichlorophenyl)-5-isopropyl-4-((4-(4-methoxy-6-(1H-tetrazol-5-yl)benzo[d]thiazol-2-yl)piperazin-1-yl)methyl)isoxazole]	5.30 to 6.40	–
CC(C)c1onc(-c2c(Cl)cccc2Cl)c1CC1CCN(c2nc3c(F)cc(C(=O)O)cc3s2)CC1 [VI-11]	5.30 to 6.40	–
C[C@@H]1CN(Cc2c(-c3c(Cl)cccc3Cl)noc2C2CC2)CCN1c1nc2c(OC(F)(F)F)cc(C(=O)O)cc2s1 [VII-04, 2-[(2R)-4-[[5-Cyclopropyl-3-(2,6-dichlorophenyl)-1,2-oxazol-4-yl]methyl]-2-methylpiperazin-1-yl]-4-(trifluoromethoxy)-1,3-benzothiazole-6-carboxylic acid]	7.00 to 8.00	–
COc1cc(C(N)=O)cc2sc(N3CCN(Cc4c(-c5c(Cl)cncc5Cl)noc4C4CC4)C[C@H]3C)nc12 [VIII-03, 2-[(2R)-4-[[5-Cyclopropyl-3-(3,5-dichloropyridin-4-yl)-1,2-oxazol-4-yl]methyl]-2-methylpiperazin-1-yl]-4-methoxy-1,3-benzothiazole-6-carboxamide]	6.40 to 7.00	–
COc1cc(C(N)=O)cc2nc(N3CCN(Cc4c(-c5c(Cl)cccc5Cl)noc4C4CC4)C[C@@H]3C)sc12 [VIII-04, (S)-2-(4-((5-Cyclopropyl-3-(2,6-dichlorophenyl)isoxazol-4-yl)methyl)-2-methylpiperazin-1-yl)-7-methoxybenzo[d]thiazole-5-carboxamide]	5.30 to 6.40	–
